Columns and labels:
[1] = Plasma pharmacokinetics, single ascending dose (SAD); format: in vivo, human; settings: for Cmax, geometric mean (CV%) / Tmax, median (min–max): fasting
Protocol: In SAD part, volunteers were designed into eight SAD cohorts (25, 50, 100, 150, 200, 250, 300 and 400 mg). Among these cohorts, 25 mg was bisected by the 50 mg specification under good manufacturing practices (GMP) condition and provided the certificate of analysis. […] Jaktinib or placebo was administrated after an overnight fast.
For MAD cohorts, blood samples were collected at 0, 0.25, 0.5, 1, 1.5, 2, 3, 4, 5, 6, 8 and 12 h on day 1; 0 h on day 2, 3, 4, 6 and 7; 0, 0.25, 0.5, 1, 1.5, 2, 3, 4, 5, 6, 8, 12, 24, 36 and 48 h on day 10. In food effect cohort, blood samples were collected at 0, 0.25, 0.5, 1, 1.5, 2, 3, 4, 5, 6, 8, 12, 24, 36, 48, 72, 96 and 120 h in period one of group A; 0, 0.25, 0.5, 1, 1.5, 2, 3, 4, 5, 6, 8, 12, 24, 36 and 48 h in period two of group A and the two periods of group B. Blood samples were centrifuged at 3,000 rpm for 10 min at 2–8 °C and stored at -80 °C until liquid chromatography-mass spectrophotometry (LC-MS/MS) analysis. Urine and feces samples were collected in period one of group A of food effect cohort with the intervals 0, 0–6, 6–12, 12–24, 24–48, 48–72, 72–96, 96–120 and 0–120 h, respectively. […]

[2] = set-up: species or system Wistar rats; settings: rat, in vivo, po
Description: Suzhou Zelgen Biopharmaceuticals Co., Ltd. Jaktinib Hydrochloride Tablets Chemical Drug Class 1 New Drug chromosomal structural aberrations in CHL cells. Therefore, the results of the chromosomal aberration test were negative.
Mouse Bone Marrow Micronucleus Test
A mouse bone marrow micronucleus test of ZG0128 has been performed. After multiple doses of ZG0128 are given to mice via oral gavage, the incidence of micronucleated polychromatic erythrocytes in the bone marrow is observed to estimate the damage to chromosomal integrity in bone marrow cells and subsequent abnormality of chromosome segregation, so as to determine the presence of genotoxicity. The results […]
were observed every day. […] The body weight of female rats was measured twice a week before pregnancy and on days 0, 2, 4, 6, 9, 12, and 15 of gestation after successful mating. The food intake of male and female rats was measured once a week before mating. After successful mating, the food intake of female rats was measured on days 0, 6, and 12 of gestation. […] In addition, the weights of testes, epididymides, prostate, and seminal vesicles were measured to calculate the organ coefficients. […] In addition, the weights of the pregnant uterus, placenta and uterus, placenta, ovaries, brain, and the total weight of live fetuses were measured. […]

[3] = 25–400 mg, linear mixed effects model

For Jaktinib, the “slope (90% CI) for ln AUC0-∞ vs dose” value [1, 3] was 1.15 (0.96–1.34), the “slope (90% CI) for ln Cmax vs dose” value [1, 3] was 1.00 (0.86–1.15) and the “Cmax, geometric mean (CV%)” value ([1]; single 25 mg dose) was 34.50 (51.6) ng/ml. For the same compound, the “Tmax, median (min–max)” value ([1]; single 25 mg dose) was 2.00 (1.00–4.00) h, the “Cmax, geometric mean (CV%)” value ([1]; single 50 mg dose) was 77.56 (72.8) ng/ml and the “Tmax, median (min–max)” value ([1]; single 50 mg dose) was 3.00 (0.50–5.00) h. For the same compound, the “Cmax, geometric mean (CV%)” value ([1]; single 100 mg dose) was 183.48 (33.3) ng/ml, the “Tmax, median (min–max)” value ([1]; single 100 mg dose) was 1.25 (0.50–3.00) h and the “Cmax, geometric mean (CV%)” value ([1]; single 150 mg dose) was 297.18 (36.6) ng/ml. The “Tmax, median (min–max)” value ([1]; single 150 mg dose) was 2.50 (1.50–4.00) h, the “Cmax, geometric mean (CV%)” value ([1]; single 200 mg dose) was 354.52 (44.6) ng/ml and the “Tmax, median (min–max)” value ([1]; single 200 mg dose) was 2.50 (1.00–3.00) h. For the same compound, the “Cmax, geometric mean (CV%)” value ([1]; single 250 mg dose) was 404.20 (36.9) ng/ml, the “Tmax, median (min–max)” value ([1]; single 250 mg dose) was 2.00 (1.00–4.00) h and the “Cmax, geometric mean (CV%)” value ([1]; single 300 mg dose) was 510.54 (35.4) ng/ml. The “Tmax, median (min–max)” value ([1]; single 300 mg dose) was 3.00 (0.50–5.00) h, the “Cmax, geometric mean (CV%)” value ([1]; single 400 mg dose) was 579.35 (42.6) ng/ml and the “Tmax, median (min–max)” value ([1]; single 400 mg dose) was 3.50 (2.00–5.00) h. For the same compound, the “CL/F, range across cohorts” value ([1]; single dose 25–400 mg) was 76.212 to 150.190 L/h, the “Vz/F, range across cohorts” value ([1]; single dose 25–400 mg) was 533.561 to 1033.554 L and the “median Tmax, range across cohorts” value ([1]; single dose 25–400 mg jaktinib) was 1.25 to 3.5 h. For the same compound, the “t1/2, range across cohorts” value ([1]; single dose 25–400 mg jaktinib) was 2.952 to 9.040 h.
In the case of `Cl.Cl.O.[2H]C1([2H])COCC([2H])([2H])N1c1ccc(Nc2nccc(-c3ccc(C(=O)NCC#N)cc3)n2)cc1` [ZG0128, Jaktinib Dihydrochloride Monohydrate], the “NOAEL for reproductive functions and embryonic development” value [2] is reported as 18 mg/kg.

From article PMC7849180 (Frontiers in Pharmacology, 2020)
